Columns and labels:
[1] = test system: p(dGdC)2 (poly dGdC–poly dGdC) (DNA, polymer) GC; assay: fluorescence titration, Scatchard fit; conditions: I = 0.05 M (sodium cacodylate); sodium cacodylate buffer, pH 7.0; polynucleotide concentration as phosphates; n fixed at 0.2; per base
[2] = test system: p(dAdT)2 (poly dAdT–poly dAdT) (DNA, polymer) AT; assay: fluorescence titration, Scatchard fit; conditions: I = 0.05 M (sodium cacodylate); sodium cacodylate buffer, pH 7.0; polynucleotide concentration as phosphates; n fixed at 0.2; per base
[3] = test system: pApU (poly A–poly U) (RNA, polymer) A/U; assay: UV thermal denaturation at 260 nm; conditions: I = 0.05 M (sodium cacodylate); sodium cacodylate buffer, pH 7.0; r = [compound]/[RNA] = 0.3; error ±0.5 °C; per base
[4] = test system: pApU (poly A–poly U) (RNA, polymer) A/U; assay: fluorescence titration, Scatchard fit; conditions: I = 0.05 M (sodium cacodylate); sodium cacodylate buffer, pH 7.0; polynucleotide concentration as phosphates; n fixed at 0.2; per base

| SMILES | log K [1] | log K [2] | ΔTm [3] | log K [4] |
| --- | --- | --- | --- | --- |
| COc1c2cc(N)cc1Cc1cc(C(C)(C)C)cc(c1OCc1nccn1C)Cc1cc(NC(=O)CCCc3ccc4ccc5cccc6ccc3c4c56)cc(c1OC)Cc1cc(C(C)(C)C)cc(c1OCc1nccn1C)C2 | 5.7 | 7.4 | +1 °C | 6.4 |
| COc1c2cc(NC(=O)CCCc3ccc4ccc5cccc6ccc3c4c56)cc1Cc1cc(C(C)(C)C)cc(c1OCc1nccn1C)Cc1cc(NC(=O)CCCc3ccc4ccc5cccc6ccc3c4c56)cc(c1OC)Cc1cc(C(C)(C)C)cc(c1OCc1nccn1C)C2 | 6.9 | 6.6 | -1 °C | 7.2 |
